US20260305610A1, “TRIAZOLE COMPOUND, AND PREPARATION METHOD THEREFOR, HERBICIDAL COMPOSITION AND USE THEREOF” (QINGDAO KINGAGROOT CHEMICAL COMPOUND CO., LTD., priority 2023, published 2026)

Key:
[1] = system: monocotyledonous and dicotyledonous weeds; assay: Pre-emergence test experiment (weeds); format: in vivo; design: key: 9: completely dead; 8: growth control rate is greater than or equal to 90% and less than 100%; 7: growth control rate is greater than or equal to 80% and less than 90%; 6: growth control rate is greater than or equal to 70% and less than 80%; growth control rate is greater than or equal to 50% and less than 70%; 4: growth control rate is greater than or equal to 30% and less than 50%; growth control rate is greater than or equal to 20% and less than 30%; growth control rate is greater than or equal to 10% and less than 20%; growth control rate is less than 10%; 0: no effect; conditions: 30 g a.i./ha
[2] = system: major crops; assay: Pre-emergence test experiment (crops); format: in vivo; design: key: 9: completely dead; 8: growth control rate is greater than or equal to 90% and less than 100%; 7: growth control rate is greater than or equal to 80% and less than 90%; 6: growth control rate is greater than or equal to 70% and less than 80%; growth control rate is greater than or equal to 50% and less than 70%; 4: growth control rate is greater than or equal to 30% and less than 50%; growth control rate is greater than or equal to 20% and less than 30%; growth control rate is greater than or equal to 10% and less than 20%; growth control rate is less than 10%; 0: no effect; conditions: 30 g a.i./ha

SMILES	Pre-emergence activity level (growth control rate) on Amaranthus retroflexus [1]	Pre-emergence activity level (growth control rate) on Descurainia sophia [1]	Pre-emergence activity level (growth control rate) on Digitaria sanguinalis [1]	Pre-emergence activity level (growth control rate) on Setaria viridis [1]	Pre-emergence activity level (growth control rate) on Solanum nigrum [1]	Pre-emergence activity level (growth control rate) on Veronica [1]	Pre-emergence plant damage level (growth control rate) on Corn [2]	Pre-emergence plant damage level (growth control rate) on Cotton [2]	Pre-emergence plant damage level (growth control rate) on Soybean [2]
Cc1ccc(-n2cnc(C(F)(F)F)n2)nc1Oc1cccc(OC(F)(F)F)c1 [Compound 9]	9	9	9	9	9	9	0	0	0
Cc1ccc(-n2cnc(C(F)(F)F)n2)nc1Oc1ccc(F)c(C(F)(F)F)c1 [Compound 10]	9	9	9	9	9	9	0	0	0
Cc1ccc(-n2cnc(C(F)(F)F)n2)nc1Oc1cncc(C(F)(F)F)c1 [Compound 11]	9	9	9	9	9	9	0	0	0
Cc1ccc(-n2cnc(C(F)(F)F)n2)nc1Oc1cccc(C(F)F)c1 [Compound 12]	9	9	9	9	9	9	0	0	0
Cc1ccc(-n2cnc(C(C)(F)F)n2)nc1Oc1cccc(C(F)(F)F)c1 [Compound 13]	9	9	8 (growth control rate is greater than or equal to 90% and less than 100%)	7 (growth control rate is greater than or equal to 80% and less than 90%)	–	9	0	0	0
Cc1ccc(-n2cnc(C(F)(F)C(F)(F)F)n2)nc1Oc1cccc(C(F)(F)F)c1 [Compound 14]	9	9	8 (growth control rate is greater than or equal to 90% and less than 100%)	9	9	9	0	0	0
Cc1ccc(-n2cnc(C(F)(F)C(F)(F)F)n2)nc1Oc1cncc(C(F)(F)F)c1 [Compound 15]	9	9	8 (growth control rate is greater than or equal to 90% and less than 100%)	9	8 (growth control rate is greater than or equal to 90% and less than 100%)	9	0	0	0
CCc1ccc(-n2cnc(C(F)(F)F)n2)nc1Oc1cncc(C(F)(F)F)c1 [Compound 17]	9	9	9	9	9	9	0	0	0
CCc1ccc(-n2cnc(C(C)(F)F)n2)nc1Oc1cccc(C(F)(F)F)c1 [Compound 18]	9	9	8 (growth control rate is greater than or equal to 90% and less than 100%)	8 (growth control rate is greater than or equal to 90% and less than 100%)	8 (growth control rate is greater than or equal to 90% and less than 100%)	9	0	0	0
